Results published in ChEMBL document CHEMBL1129864, “A new series of selective COX-2 inhibitors: 5,6-diarylthiazolo[3,2-b][1,2,4]triazoles” (Bioorg Med Chem Lett, 1997).

What was measured:
[1] = Percentage recovery after 3h incubation with rat hapatocytes was determined; type: ADME, organism-based; conditions: hepatocytes, read-out: Recovery
[2] = molecular target: T1, Prostaglandin G/H synthase 2 (Homo sapiens, UniProt P35354); type: cell-based, CHO
T1 sequence (P35354 whole entry): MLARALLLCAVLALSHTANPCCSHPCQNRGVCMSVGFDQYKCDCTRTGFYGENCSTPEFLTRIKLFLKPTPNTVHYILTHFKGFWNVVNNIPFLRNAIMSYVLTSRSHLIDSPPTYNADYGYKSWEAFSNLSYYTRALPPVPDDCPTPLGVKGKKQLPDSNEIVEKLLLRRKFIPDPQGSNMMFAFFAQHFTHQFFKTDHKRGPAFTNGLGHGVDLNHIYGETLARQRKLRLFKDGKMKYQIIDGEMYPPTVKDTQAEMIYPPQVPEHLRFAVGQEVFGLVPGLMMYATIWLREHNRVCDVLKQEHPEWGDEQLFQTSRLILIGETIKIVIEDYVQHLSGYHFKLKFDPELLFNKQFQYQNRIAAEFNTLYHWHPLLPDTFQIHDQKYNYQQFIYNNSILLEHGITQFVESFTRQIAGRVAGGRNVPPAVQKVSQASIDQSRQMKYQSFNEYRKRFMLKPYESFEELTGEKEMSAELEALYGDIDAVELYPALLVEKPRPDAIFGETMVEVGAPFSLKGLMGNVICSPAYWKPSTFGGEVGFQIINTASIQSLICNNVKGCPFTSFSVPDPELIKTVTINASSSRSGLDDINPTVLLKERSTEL
Description: Tested in vitro for the ability to inhibit Prostaglandin G/H synthase 2 in chinese hamster ovary (CHO) cells

[3] = molecular target: Prostaglandin G/H synthase 1 (Homo sapiens, UniProt P23219)
Description: Tested in vitro for the ability to inhibit Prostaglandin G/H synthase 1 in chinese hamster ovary (CHO) cells

[4] = molecular target: T1, Prostaglandin G/H synthase 2; type: organism-based, Blood
Description: In vivo ability to inhibit Prostaglandin G/H synthase 2 in human whole blood assay

Rattus norvegicus [5] = species on record: Rattus norvegicus; assay: Plasma clearance in rat; type: ADME, organism-based; conditions: in vivo
[6] = Maximum concentration at 4 hr after administration of 5 mg/kg dose peroral in rat; type: ADME, organism-based; design: dose 5 mg/kg, route oral; conditions: in vivo, po
[7] = Bioavailability at 4 hr after administration of 5 mg/kg dose peroral in rat; type: ADME, organism-based; conditions: in vivo, po
Rattus norvegicus [8] = species on record: Rattus norvegicus; assay: Intrinsic activity in the rat pyresis assay; type: functional
Rattus norvegicus [9] = species on record: Rattus norvegicus; assay: Intrinsic activity in the rat hyperalgesia assay; type: functional; conditions: read-out: ID50 (the source's name)
Rattus norvegicus [10] = assay: Intrinsic activity in the rat paw edema model; type: functional

Sequence of Prostaglandin G/H synthase 1 (P23219 whole entry): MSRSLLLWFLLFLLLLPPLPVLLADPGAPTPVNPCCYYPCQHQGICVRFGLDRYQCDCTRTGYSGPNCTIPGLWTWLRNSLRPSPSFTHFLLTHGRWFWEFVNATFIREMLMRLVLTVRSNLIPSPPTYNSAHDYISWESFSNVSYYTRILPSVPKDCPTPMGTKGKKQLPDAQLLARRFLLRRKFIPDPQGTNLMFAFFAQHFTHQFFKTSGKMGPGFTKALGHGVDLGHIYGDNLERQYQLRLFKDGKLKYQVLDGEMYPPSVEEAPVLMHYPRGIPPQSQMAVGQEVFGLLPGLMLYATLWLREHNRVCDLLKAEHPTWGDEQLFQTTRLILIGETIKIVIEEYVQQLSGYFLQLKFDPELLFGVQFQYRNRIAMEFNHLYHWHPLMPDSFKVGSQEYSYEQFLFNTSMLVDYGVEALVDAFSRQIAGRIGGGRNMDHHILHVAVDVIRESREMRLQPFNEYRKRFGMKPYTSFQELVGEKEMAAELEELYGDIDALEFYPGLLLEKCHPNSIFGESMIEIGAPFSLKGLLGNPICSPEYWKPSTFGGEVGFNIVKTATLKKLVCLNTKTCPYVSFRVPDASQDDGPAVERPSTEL

Row | SMILES | IC50 [2] [µM] | IC50 [3] [µM] | IC50 [4] [µM] | also measured
1 | CS(=O)(=O)c1ccc(-c2c(-c3ccccc3)nc3sccn23)cc1 |  |  |  | remaining at 3 h [1]: < 10%
2 | CS(=O)(=O)c1ccc(-c2sc3ncnn3c2-c2cc(F)cc(F)c2)cc1 | 0.08 | > 50 |  | 
3 | CS(=O)(=O)c1ccc(-c2sc3ncnn3c2-c2cccc(F)c2)cc1 | 0.022 | > 50 | 4.2 | 
4 | CS(=O)(=O)c1ccc(-c2sc3ncnn3c2-c2ccccc2)cc1 | 0.01 | 43 | 2.3 | Clearance (Rattus norvegicus [5]): 0.78 L/h/kg; remaining at 3 h [1]: > 95%; Cmax [6]: 7.2 µM; bioavailability [7]: ~100%; ED50 (Rattus norvegicus [8]): 1 mg/kg; ED50 (Rattus norvegicus [9]): 1 mg/kg; ED50 (Rattus norvegicus [10]): 1.7 mg/kg
5 | CS(=O)(=O)c1ccc(-c2c(-c3ccccc3)sc3ncnn23)cc1 | 0.032 | > 50 | > 30 | 
6 | CS(=O)(=O)c1ccc(-c2sc3nncn3c2-c2ccccc2)cc1 | 0.45 | > 50 |  | 
7 | COc1cccc(-c2c(-c3ccc(S(C)(=O)=O)cc3)sc3ncnn23)c1 | 0.26 | > 50 |  | 
8 | Cc1nc2sc(-c3ccc(S(C)(=O)=O)cc3)c(-c3ccccc3)n2n1 | 0.02 | > 50 | 10 | 
9 | Cc1nc2sc(-c3ccc(S(C)(=O)=O)cc3)c(-c3cccc(F)c3)n2n1 | 0.15 | > 50 | 14 | 

The remaining compounds from weak to strong by IC50 [3], led by results:

Row | IC50 [2] [µM] | IC50 [3] [µM] | IC50 [4] [µM] | SMILES | also measured
10 | 0.048 | 30 | > 30 | CS(=O)(=O)c1ccc(-c2sc3ncnn3c2-c2ccc(F)c(F)c2)cc1 | 
11 | 0.036 | 15 |  | CS(=O)(=O)c1ccc(-c2sc3ncnn3c2-c2ccc(F)cc2)cc1 | 
12 | 0.006 | 9.6 | 4.1 | C=Cc1nc2sc(-c3ccc(S(C)(=O)=O)cc3)c(-c3ccccc3)n2n1 | 
13 | > 50 | 9 |  | CS(=O)(=O)c1ccc(-c2c(-c3ccccc3)sc3nc(C(F)(F)F)nn23)cc1 | 
14 | 0.013 | 8.5 |  | CS(=O)(=O)c1ccc(-c2sc3nc(C(F)(F)F)nn3c2-c2cccc(F)c2)cc1 | 
15 | 0.015 | 2.4 |  | CCc1nc2sc(-c3ccc(S(C)(=O)=O)cc3)c(-c3ccccc3)n2n1 | 
16 | 0.23 | 2.1 |  | CS(=O)(=O)c1ccc(-c2c(-c3ccccc3)sc3nncn23)cc1 | 
17 |  | 1.1 |  | CS(=O)(=O)c1ccc(-c2sc3nc(C(F)(F)F)nn3c2-c2ccccc2)cc1 | 
18 | 0.003 | 0.61 |  | Cc1cccc(-c2c(-c3ccc(S(C)(=O)=O)cc3)sc3nc(C(F)(F)F)nn23)c1 | 
19 | 0.011 | 0.6 |  | CC(C)c1nc2sc(-c3ccc(S(C)(=O)=O)cc3)c(-c3ccccc3)n2n1 | 
